{"source": "patent US6653529B2", "about": "“Use of the maize X112 mutant ahas 2 gene and imidazolinone herbicides for selection of transgenic monocots, maize, rice and wheat plants resistant to the imidazolinone herbicides” (BASF Aktiengesellschaft, priority 2000, dated 2003)", "key": {"[1]": {"test_system": "transgenic rice Line 29 (maize XI12 ahas2 gene)", "test": "Greenhouse spray test of rice with PURSUIT imazethapyr (pre- and post-emergence)", "assay_type": "in vivo"}, "[2]": {"test_system": "Nortai (control) suspension cells", "test": "In vitro growth of suspension cells on imazethapyr", "assay_type": "cell-based, rice", "procedure": "(§1) Cell suspension cultures were initiated from immature embryo-derived calli from either transgenic homozygous T2 plant 26-4-10 or Nortai plants in 3SN6d2 liquid medium and cultured two to three months prior to treatment with various concentrations of imazethapyr. The suspension cells were filtered through a 40μ nylon mesh, collected, and resuspended in 3SN6d2 liquid medium 0.2 ml of the suspended cells were loaded onto a Millipore filter, then placed on top of agarose solidified medium containing 0, 0.1, 0.25, 0.5, 1.0, 2.5, 5, 10, 25, or 50 μM imazethapyr (AC263,499). Three weeks later, all cultures were transferred once to fresh media with the same concentrations of imazethapyr and grown for another 5 weeks. Fresh weight was measured at the end of an 8-week culture period."}, "[3]": {"test_system": "transgenic suspension cells (T2 plant 26-4-10)", "test": "In vitro growth of suspension cells on imazethapyr", "assay_type": "cell-based, rice", "conditions": "8-week culture", "procedure": "as §1"}, "[4]": {"test_system": "immature embryos of transgenic homozygous T2 plants (26-4)", "test": "In vitro callus induction and growth from immature embryos on imazethapyr", "assay_type": "cell-based, rice", "procedure": "(§2) Immature embryos (12-14 days after fertilization) were dissected from transgenic homozygous T2 plants, identified as 26-4 in FIG. 1, or seed-grown Nortai plants and placed in N6 basal medium (Chiu et al., Sci. Sin 18:659-68, 1975) supplemented with 2 mg/l 2,4-D, 3% sucrose, 0.6% agarose (3SN6d2) amended with 0, 0.01, 0.033, 0.1, 0.3, 1.0, 3.3, 10, 25, or 50 μM imazethapyr (AC263,499). Five embryos were placed on one 10×60 mm Petri dish with two to three plates for each concentration as replications. Three weeks later, in vitro cellular response was monitored by measuring the fresh weight of callus derived from individual embryos."}, "[5]": {"test_system": "immature embryos of Nortai plants (control)", "test": "In vitro callus induction and growth from immature embryos on imazethapyr", "assay_type": "cell-based, rice", "procedure": "as §2"}, "[6]": {"test_system": "transgenic corn hybrids BAa-4 and MAa-7", "test": "Greenhouse spray test of corn, statements of the text on both transgenic lines", "assay_type": "in vivo", "conditions": "4× (160 g/ha)", "excerpt": "Grow one corn plant per pot (5×5 inch) in a 3×5 flat till three- to four-leaf stage (about 9 to 13 days depending on the weather). On the day of spraying, water the plants well and let excess water drip out. Spray plants on a belt-sprayer with the imidazolinone herbicides at desired rates. […] When temperature was too high, base water plants to prevent wilting. Closely observe the plants for the next two to three weeks. Symptoms of herbicide injury will be visible three days after spraying and susceptible plants will die within two to three weeks depending on temperature.\nThe plants were rated on a scale of 0-5 with 0 for dead plants and 5 for healthy plants with no or minimum injury.\nTwo transgenic hybrids BAa-4 and MAa-7 lines (see FIG. 5 for their pedigree), a non-transformed control line B×A (B73×A188), 8962IT (heterozygous XI12 imi-tolerant corn line), 8962 (wild type control) and 3395IR (homozygous XA17 imi-resistant corn line) (8962IT and 8962 were from ICI, now Garst Seed Company, Slater, Iowa 50244, and 3395IR was from Pioneer Hi-Bred International Inc, Iowa 50306-3453). Plants were sprayed with 4, 8, 16 or 20×PURSUIT® imazethapyr, ARSENAL® imazapyr, CADRE® imazameth or RAPTOR® imazamox. Plants were scored 0 to 5 (with 0 being dead plants, 5 being healthy plants with no injury) individually 16 days after herbicide treatments. […]"}, "[7]": {"test_system": "transgenic wheat plants (0407-1 and progeny)", "test": "Greenhouse spray test of wheat with RAPTOR imazamox", "assay_type": "in vivo", "excerpt": "Sow seed to 3×5-cell flats at about 10 seed per cell. Grow the plants for about two weeks. On the day of spraying, water plants well and let excess water drip out. Spray plants on a belt-sprayer with the imidazolinone herbicides at desired rates. […] Resume regular water schedule three days after spraying. Closely observe the plants for the next two to four weeks. Symptoms of herbicide injury will be visible two weeks after spraying and susceptible plants will die four to six weeks later. We usually measure plant height and score the plant morphology with a 0 to 10 rating with 0 for dead plants and 10 for healthy plants with no or minimum injury.\nWheat transformation efficiency, calculated as percent of immature embryos produced at least one imidazolinone-resistant transgenic plant ranged from 0.4 to 3.1% (Table 7). A fertile regenerant 0407-1 generated from early transformation experiment with Agrobacterium (LBA4404) containing pAC1558 was evaluated for resistance to RAPTOR® imazamox post emergence. Untransformed Ciccio and Closseo plants were very sensitive to RAPTOR® imazamox and dead at very low rate.\nWe also analyzed T2 progeny plants from one of the best lines of 0407-1-10. T2 seeds were planted at 10 seeds per pot and two pots per line were sprayed at 0, 10, 20, 30, 40 and 50 g/ha RAPTOR® imazamox. Most plants did show an increase in resistance over non-transformed control (FIG. 6B)."}, "[8]": {"conditions": "post-emergence, Rate 63 (g ai/ha)"}, "[9]": {"conditions": "post-emergence, Rate 125 (g ai/ha)"}, "[10]": {"conditions": "post-emergence, Rate 250 (g ai/ha)"}}, "data": [{"smiles": "CCc1cnc(C2=NC(C)(C(C)C)C(=O)N2)c(C(=O)O)c1", "note": "(centres unmarked) [PURSUIT ®, imazethapyr]", "values": [{"measurement": "No. panicles/plant Mean", "setting": "[1]; [8]", "value": 27.7}, {"measurement": "No. tillers/plant Mean", "setting": "[1]; [8]", "value": 34.5}, {"measurement": "Plant height Mean", "setting": "[1]; [8]", "value": 112.5, "unit": "cm"}, {"measurement": "Yield % 0×", "setting": "[1]; [8]", "value": 93, "unit": "% 0×"}, {"measurement": "Yield Mean", "setting": "[1]; [8]", "value": 199.0, "unit": "g/5 plants"}, {"measurement": "No. panicles/plant Mean", "setting": "[1]; [9]", "value": 24.5}, {"measurement": "No. tillers/plant Mean", "setting": "[1]; [9]", "value": 28.3}, {"measurement": "Plant height Mean", "setting": "[1]; [9]", "value": 114.1, "unit": "cm"}, {"measurement": "Yield % 0×", "setting": "[1]; [9]", "value": 113, "unit": "% 0×"}, {"measurement": "Yield Mean", "setting": "[1]; [9]", "value": 240.7, "unit": "g/5 plants"}, {"measurement": "No. panicles/plant Mean", "setting": "[1]; [10]", "value": 23.0}, {"measurement": "No. tillers/plant Mean", "setting": "[1]; [10]", "value": 24.1}, {"measurement": "Plant height Mean", "setting": "[1]; [10]", "value": 110.2, "unit": "cm"}, {"measurement": "Yield % 0×", "setting": "[1]; [10]", "value": 93, "unit": "% 0×"}, {"measurement": "Yield Mean", "setting": "[1]; [10]", "value": 197.3, "unit": "g/5 plants"}, {"measurement": "No. panicles/plant Mean", "setting": "[1]; pre-emergence, 63 g/ha", "value": 15.6}, {"measurement": "No. tillers/plant Mean", "setting": "[1]; pre-emergence, 63 g/ha", "value": 16.2}, {"measurement": "Plant height Mean", "setting": "[1]; pre-emergence, 63 g/ha", "value": 92.7, "unit": "cm"}, {"measurement": "Yield % 0×", "setting": "[1]; pre-emergence, 63 g/ha", "value": 93, "unit": "% 0×"}, {"measurement": "Yield Mean", "setting": "[1]; pre-emergence, 63 g/ha", "value": 156.3, "unit": "g/5 plants"}, {"measurement": "No. panicles/plant Mean", "setting": "[1]; pre-emergence, 125 g/ha", "value": 16.3}, {"measurement": "No. tillers/plant Mean", "setting": "[1]; pre-emergence, 125 g/ha", "value": 14.3}, {"measurement": "Plant height Mean", "setting": "[1]; pre-emergence, 125 g/ha", "value": 95.1, "unit": "cm"}, {"measurement": "Yield % 0×", "setting": "[1]; pre-emergence, 125 g/ha", "value": 99, "unit": "% 0×"}, {"measurement": "Yield Mean", "setting": "[1]; pre-emergence, 125 g/ha", "value": 166.7, "unit": "g/5 plants"}, {"measurement": "No. panicles/plant Mean", "setting": "[1]; pre-emergence, 250 g/ha", "value": 16.2}, {"measurement": "No. tillers/plant Mean", "setting": "[1]; pre-emergence, 250 g/ha", "value": 16.3}, {"measurement": "Plant height Mean", "setting": "[1]; pre-emergence, 250 g/ha", "value": 93.1, "unit": "cm"}, {"measurement": "Yield % 0×", "setting": "[1]; pre-emergence, 250 g/ha", "value": 92, "unit": "% 0×"}, {"measurement": "Yield Mean", "setting": "[1]; pre-emergence, 250 g/ha", "value": 155.3, "unit": "g/5 plants"}, {"measurement": "concentrations that inhibit the growth of untransformed rice cells", "setting": "[2]; in vitro", "value": "≥ 0.1", "unit": "µM"}, {"measurement": "concentration at which growth of control cells was halted", "setting": "[2]; lowest concentration used, 8-week culture", "value": 0.1, "unit": "μm"}, {"measurement": "concentration up to which growth of transgenic suspension cells was normal", "setting": "[3]", "value": "up to 1.0 μm"}, {"measurement": "concentration with no growth", "setting": "[3]", "value": 5, "unit": "μm"}, {"measurement": "concentration with sharp decrease in growth", "setting": "[3]", "value": 2, "unit": "μm"}, {"measurement": "concentration up to which callus induction and growth were normal", "setting": "[4]; transgenic embryos", "value": "up to 1 μM"}, {"measurement": "concentration with no callus induction", "setting": "[4]; transgenic embryos", "value": 10, "unit": "µM"}, {"measurement": "reduction in growth", "setting": "[4]; transgenic embryos, 3.3 μM", "value": "about 50%"}, {"measurement": "increase in resistance to imazethapyr in vitro", "setting": "[4]; transgenic vs untransformed, immature embryos (also suspension cells / cell lines)", "value": 100, "unit": "fold"}, {"measurement": "growth (reduced to) on imazethapyr", "setting": "[5]; 0.03 μM", "value": "less than 50%"}, {"measurement": "concentration at which callus induction was totally inhibited", "setting": "[5]; 3 weeks", "value": 0.1, "unit": "µM"}]}, {"smiles": "COCc1cnc(C2=NC(C)(C(C)C)C(=O)N2)c(C(=O)O)c1", "note": "(centres unmarked) [RAPTOR ®, imazamox]", "values": [{"measurement": "injury to transgenic corn plants", "setting": "[6]", "value": "no or slight injury"}, {"measurement": "reduction of plant height of resistant transgenic plants", "setting": "[7]; 20 g/ha, T2 progeny of 0407-1-10", "value": "about 25%"}, {"measurement": "T1 transgenic plants dead, out of 288", "setting": "[7]; 50 g/ha", "value": 218}, {"measurement": "T1 transgenic plants that survived, out of 288", "setting": "[7]; 50 g/ha", "value": 70}, {"measurement": "stunting of resistant plants", "setting": "[7]; 50 g/ha, T1", "value": "33-70%"}, {"measurement": "increase of tolerance in transgenic wheat plants", "setting": "[7]; in vivo", "value": 5, "unit": "×"}]}]}
